This is an account of results in ChEMBL document CHEMBL5329189, “Design, synthesis, and anti-hepatocellular carcinoma of thiopyrimidine/chalcone hybrids as dual STAT3/STAT5 inhibitors” (RSC Med Chem, 2023).

In data set [1] the test system is Huh-7. The data set can be described thus: Antitumor activity against human Huh7 cells measured after 48 hrs by MTT assay. Type of data set: functional, cell-based. The settings on record: Huh-7, 48 h. On the technique in general: Formazan colour is commonly taken as a measure of viable cells.
The test system of data set [2] is HepG2. As to the kind of experiment: Antitumor activity against human HepG2 cells measured after 48 hrs by MTT assay. It is filed as functional, cell-based. Conditions: HepG2, 48 h.
A short description of data set [3]: Cytotoxicity against THLE-2 cells measured after 48 hrs by MTT assay. It is filed as toxicity, cell-based. The settings on record: human.
The nature of data set [4]: Selectivity index, ratio of IC50 for cytotoxicity against THLE-2 cells to IC50 for antitumor activity against human HepG2 cells. Type of data set: cell-based. The settings on record: THLE-2 cells versus HepG2 cells, read-out: Ratio IC50.
Data set [5] is described as follows: Selectivity index, ratio of IC50 for cytotoxicity against THLE-2 cells to IC50 for antitumor activity against human Huh-7 cells. It is filed as cell-based. The settings on record: THLE-2 cells versus Huh-7 cells, read-out: Ratio IC50.
Data set [6] addresses Signal transducer and activator of transcription 3 (Homo sapiens) (UniProt P40763). The data set can be described thus: Inhibition of STAT3 (unknown origin) using TMB as substrate assessed as reduction in phosphorylated STAT3 at Y705 residue at 10 uM incubated for 5 hrs by ELISA (reference value: 14.53 +/- 0.4 ng/ml).
Data set [7] addresses T1, Signal transducer and activator of transcription 5A (Homo sapiens) (UniProt P42229).
T1 sequence (whole entry): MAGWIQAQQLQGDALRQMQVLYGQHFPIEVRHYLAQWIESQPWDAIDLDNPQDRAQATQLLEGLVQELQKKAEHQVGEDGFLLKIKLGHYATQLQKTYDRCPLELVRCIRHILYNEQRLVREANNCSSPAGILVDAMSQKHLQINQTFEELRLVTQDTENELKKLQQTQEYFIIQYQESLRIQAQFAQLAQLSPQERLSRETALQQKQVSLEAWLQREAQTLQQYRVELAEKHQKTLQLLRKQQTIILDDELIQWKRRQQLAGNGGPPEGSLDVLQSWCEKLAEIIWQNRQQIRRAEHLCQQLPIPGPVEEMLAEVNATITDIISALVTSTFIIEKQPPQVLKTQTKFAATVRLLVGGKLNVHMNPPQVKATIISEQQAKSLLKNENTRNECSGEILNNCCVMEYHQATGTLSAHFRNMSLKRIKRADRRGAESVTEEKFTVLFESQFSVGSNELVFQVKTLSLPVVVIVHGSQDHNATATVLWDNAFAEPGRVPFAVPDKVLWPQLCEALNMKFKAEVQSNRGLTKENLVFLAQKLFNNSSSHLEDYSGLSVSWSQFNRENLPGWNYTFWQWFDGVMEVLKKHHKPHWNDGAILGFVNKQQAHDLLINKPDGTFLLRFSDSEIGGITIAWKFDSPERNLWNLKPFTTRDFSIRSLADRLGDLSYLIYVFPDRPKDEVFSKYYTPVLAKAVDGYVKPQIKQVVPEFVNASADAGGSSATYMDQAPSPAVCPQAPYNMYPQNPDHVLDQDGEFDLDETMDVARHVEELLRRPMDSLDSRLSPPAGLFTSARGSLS
The data set can be described thus: Inhibition of STAT5a (unknown origin) using TMB as substrate assessed as reduction in phosphorylated STAT5a at Y694 residue by measuring fold change at 10 uM incubated for 1.5 hrs by ELISA relative to control. (In general: ELISA stands for enzyme-linked immunosorbent assay.)

The target in data set [8] is T1, Signal transducer and activator of transcription 5A (Homo sapiens). As to the kind of experiment: Inhibition of STAT5a (unknown origin) using TMB as substrate assessed as reduction in phosphorylated STAT5a at Y694 residue at 10 uM incubated for 1.5 hrs by ELISA (reference value: 11.15 +/- 0.91 ng/ml).
Data set [9] concerns the target Signal transducer and activator of transcription 3 (Homo sapiens) (UniProt P40763). As to the kind of experiment: Inhibition of STAT3 (unknown origin) using TMB as substrate assessed as reduction in phosphorylated STAT3 at Y705 residue by measuring fold change at 10 uM incubated for 5 hrs by ELISA relative to control.
The subject of data set [10] is HepG2. As to the kind of experiment: Potency index, ratio of doxorubicin IC50 to test compound IC50 for antitumor activity against human HepG2 cells incubated for 48 hrs by MTT assay. It is filed as functional.
Data set [11] has as its system HepG2. As to the kind of experiment: Potency index, ratio of stattic IC50 to test compound IC50 for antitumor activity against human HepG2 cells incubated for 48 hrs by MTT assay. It is filed as functional.
Data set [12] relates to Huh-7. The data set can be described thus: Potency index, ratio of doxorubicin IC50 to test compound IC50 for antitumor activity against human Huh-7 cells incubated for 48 hrs by MTT assay. Type of data set: functional.
For data set [13], the system named is Huh-7. As to the kind of experiment: Potency index, ratio of static IC50 to test compound IC50 for antitumor activity against human Huh-7 cells incubated for 48 hrs by MTT assay. Type of data set: functional.
For data set [14], the target named is Signal transducer and activator of transcription 3 (Homo sapiens) (UniProt P40763). The data set can be described thus: Inhibition of STAT3 phosphorylation at Tyr705 residue in human HepG2 cells incubated for 24 hrs by Western blot analysis. Type of data set: cell-based. (In general: Immunoblotting shows a protein as a band on a membrane.)
Signal transducer and activator of transcription 3 (Homo sapiens), sequence (P40763 whole entry): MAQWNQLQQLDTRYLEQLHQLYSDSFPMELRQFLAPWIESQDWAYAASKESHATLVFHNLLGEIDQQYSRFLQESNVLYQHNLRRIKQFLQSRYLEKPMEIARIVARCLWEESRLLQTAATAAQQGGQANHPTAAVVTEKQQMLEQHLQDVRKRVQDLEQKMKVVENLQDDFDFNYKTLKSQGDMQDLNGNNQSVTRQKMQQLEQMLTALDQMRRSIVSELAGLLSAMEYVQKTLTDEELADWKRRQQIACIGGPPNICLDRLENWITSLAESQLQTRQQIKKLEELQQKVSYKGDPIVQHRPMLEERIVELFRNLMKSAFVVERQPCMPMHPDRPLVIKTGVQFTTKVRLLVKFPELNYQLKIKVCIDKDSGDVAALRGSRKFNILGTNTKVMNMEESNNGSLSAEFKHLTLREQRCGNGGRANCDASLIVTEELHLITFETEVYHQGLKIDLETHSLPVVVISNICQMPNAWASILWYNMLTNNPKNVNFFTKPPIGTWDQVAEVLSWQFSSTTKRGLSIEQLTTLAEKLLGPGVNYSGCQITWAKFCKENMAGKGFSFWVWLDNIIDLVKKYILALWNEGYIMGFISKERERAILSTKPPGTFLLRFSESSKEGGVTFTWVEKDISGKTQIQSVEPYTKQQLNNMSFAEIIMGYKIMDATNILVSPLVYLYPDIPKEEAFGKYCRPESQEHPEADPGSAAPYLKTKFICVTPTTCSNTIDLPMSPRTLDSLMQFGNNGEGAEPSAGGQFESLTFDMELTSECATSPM
In data set [15] the test system is HepG2. As to the kind of experiment: Inhibition of STAT5 phosphorylation at Tyr694 residue in human HepG2 cells incubated for 24 hrs by Western blot analysis. It is filed as cell-based.
The test system of data set [16] is HepG2. As to the kind of experiment: Effect on total STAT3 protein level in human HepG2 cells incubated for 24 hrs by Western blot analysis. It is filed as functional, cell-based.
Data set [17] concerns HepG2. The data set can be described thus: Effect on total STAT5 protein level in human HepG2 cells incubated for 24 hrs by Western blot analysis. It is filed as functional, cell-based.
Data set [18] deals with T2, Signal transducer and activator of transcription 1-alpha/beta (Homo sapiens) (UniProt P42224).
T2 sequence (whole entry): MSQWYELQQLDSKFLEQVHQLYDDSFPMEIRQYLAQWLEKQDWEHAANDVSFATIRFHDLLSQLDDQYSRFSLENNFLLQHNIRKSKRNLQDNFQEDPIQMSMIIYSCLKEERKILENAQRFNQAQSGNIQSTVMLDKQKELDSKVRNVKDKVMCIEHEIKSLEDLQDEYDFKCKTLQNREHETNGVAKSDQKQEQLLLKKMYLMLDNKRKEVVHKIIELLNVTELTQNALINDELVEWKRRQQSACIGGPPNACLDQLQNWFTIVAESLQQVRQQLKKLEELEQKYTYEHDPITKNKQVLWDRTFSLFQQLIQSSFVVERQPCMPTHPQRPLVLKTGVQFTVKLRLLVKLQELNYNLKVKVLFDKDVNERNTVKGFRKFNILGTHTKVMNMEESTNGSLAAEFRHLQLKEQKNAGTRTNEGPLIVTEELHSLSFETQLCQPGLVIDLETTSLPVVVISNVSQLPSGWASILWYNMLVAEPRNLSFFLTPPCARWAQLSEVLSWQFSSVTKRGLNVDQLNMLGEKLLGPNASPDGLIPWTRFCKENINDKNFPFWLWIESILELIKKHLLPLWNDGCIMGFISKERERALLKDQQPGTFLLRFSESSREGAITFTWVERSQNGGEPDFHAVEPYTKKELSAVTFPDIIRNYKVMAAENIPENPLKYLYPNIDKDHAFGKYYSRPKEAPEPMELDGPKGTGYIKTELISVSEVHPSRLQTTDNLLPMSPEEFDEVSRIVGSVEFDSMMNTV
As to the kind of experiment: Inhibition of STAT1 in human HepG2 cells assessed as reduction in STAT1 phosphorylation at Tyr701 residue incubated for 24 hrs by Western blot analysis. Type of data set: cell-based.

For data set [19], the target named is Signal transducer and activator of transcription 3 (Homo sapiens) (UniProt P40763). The data set can be described thus: Inhibition of STAT3 (unknown origin) using TMB as substrate assessed as reduction in phosphorylated STAT3 at Y705 residue incubated for 5 hrs by ELISA (reference value: 14.53 +/- 0.4 ng/ml).
Data set [20] addresses T1, Signal transducer and activator of transcription 5A (Homo sapiens). As to the kind of experiment: Inhibition of STAT5a (unknown origin) using TMB as substrate assessed as reduction in phosphorylated STAT5a at Y694 residue incubated for 1.5 hrs by ELISA (reference value: 11.15 +/- 0.91 ng/ml).

pIC50: −log10 of the molar value. Activity calls are given as the source filed them. No cut-off for these calls is given here.

One may read the pIC50 as the IC50 on a negative log10 scale, so that one unit is a factor of ten. Read a high pIC50 as a low IC50. Broadly, the IC50 is the concentration that inhibits the measured activity by half. Low values mean greater potency, high ones weaker potency. For `Cc1ccc(/C=C/C(=O)c2ccc(NC(=O)CSc3nc(N)cc(=O)[nH]3)cc2)cc1`, the pIC50 in the data set with Huh-7 [1] was 5.61; in the data set with HepG2 [2] it was 5.59. Further, in data set [3], the IC50 at 48 h is 49.5 µM. The selectivity ratio in data set [4] was determined as 19.2; in data set [5] it was 20.3. The figures for the Activity in [6] and in [8] were 5.09 ng/mL and 4.44 ng/mL, respectively. Moreover, the figures for the fold change (FC) in data set [7] and in [9] were 2.5 and 2.8, respectively.

Consider `Nc1cc(=O)[nH]c(SCC(=O)Nc2ccc(C(=O)/C=C/c3ccc(F)cc3)cc2)n1`, for which the negative-log IC50 (pIC50) with Huh-7 [1] is 4.60; in the data set with HepG2 [2] it was 4.65.

Turning to `Nc1cc(=O)[nH]c(SCC(=O)Nc2ccc(C(=O)/C=C/c3ccc(Cl)cc3Cl)cc2)n1`, the values for the pIC50 in the data set with Huh-7 [1] and in the data set with HepG2 [2] were 5.08 and 5.31, respectively.

With `Nc1cc(=O)[nH]c(SCC(=O)Nc2ccc(C(=O)/C=C/c3ccccc3Cl)cc2)n1`, the figures for the negative-log IC50 (pIC50) with Huh-7 [1] and in the data set with HepG2 [2] were 5.66 and 5.45, respectively.

For the molecule `COc1cc(/C=C/C(=O)c2ccc(NC(=O)CSc3nc(N)cc(=O)[nH]3)cc2)cc(OC)c1OC`, the negative-log IC50 (pIC50) in the data set on Huh-7 [1] was 6.26; in the data set on HepG2 [2] it was 5.71. For the same molecule, the midpoint of inhibition in [3], the IC50 at 48 h, lay at 63.2 µM. Moreover, the selectivity ratio turned out to be 32.4 in data set [4] and 115 in data set [5]. In addition, the “Ratio IC50” value was 3.7 in the data set on HepG2 [10], 4.2 in the data set with HepG2 [11], 10.4 with Huh-7 [12] and 14.3 with Huh-7 [13]. The Activity in data set [6] was 3.19 ng/mL; in data set [8] it was 2.28 ng/mL. The figures for the fold change (FC) in data set [7] and in [9] were 4.8 and 4.5, respectively. Moreover, the inhibition result (in [14]; in the data set on HepG2 [15]) was “Active” throughout. In addition, the result in the data set on HepG2 [16] and in the data set with HepG2 [17] was inactive. Besides, the inhibition result in data set [18] was “inactive”.

For the molecule `O=[N+]([O-])c1ccc2c(c1)S(=O)(=O)C=C2`, the pIC50 was 5.10 in the data set on Huh-7 [1] and 5.08 in the data set on HepG2 [2]. Moreover, the 50% inhibitory concentration (IC50) at 48 h in [3] is over 100 µM. Moreover, the values for the Activity in data set [19] and in data set [20] were 4.9 ng/mL and 9.43 ng/mL, respectively.

Take `COc1cc(/C=C/C(=O)c2ccc(NC(=O)CSc3nc(N)cc(=O)[nH]3)cc2)cc(OC)c1`: the pIC50 in the data set on Huh-7 [1] was 5.80; in the data set with HepG2 [2], 5.29.

Turning to `COc1ccc(/C=C/C(=O)c2ccc(NC(=O)CSc3nc(N)cc(=O)[nH]3)cc2)cc1`, the negative logarithm of the IC50 (pIC50) was 5.17 in the data set on Huh-7 [1] and 5.09 in the data set on HepG2 [2].

Take `COc1cccc2c1C(=O)c1c(O)c3c(c(O)c1C2=O)C[C@@](O)(C(=O)CO)C[C@@H]3O[C@H]1C[C@H](N)[C@H](O)[C@H](C)O1` [DOXORUBICIN]: the pIC50 was 5.24 in the data set on Huh-7 [1] and 5.13 in the data set with HepG2 [2].

In the case of `CN(C)c1ccc(/C=C/C(=O)c2ccc(NC(=O)CSc3nc(N)cc(=O)[nH]3)cc2)cc1`, the pIC50 with Huh-7 [1] is 4.64; in the data set on HepG2 [2], 4.51.

Take `Nc1cc(=O)[nH]c(SCC(=O)Nc2ccc(C(=O)/C=C/c3ccc(Cl)cc3)cc2)n1`: the values for the negative logarithm of the IC50 (pIC50) in the data set with Huh-7 [1] and in the data set on HepG2 [2] were 5.14 and 4.95, respectively.
